Consider two compounds from patent US8507219B2, “Method of treating inflammation with statins” (MUSC Foundation for Research Development, priority 1997, dated 2013).

Experiment [1] deals with sterol synthesis. Conditions: Sinensky et al., 1991; read-out: IC50 for inhibition of sterol synthesis; cited from earlier work.
Experiment [2] relates to ceramide production in rat primary astrocytes. Description: Degradation of sphingomyelin to ceramide (DAG kinase assay, HPTLC) in rat primary astrocytes. The class given is cell-based. As to conditions: 10 mM NAC or 100 μM PDTC 1 h before TNF-α or IL-1β (50 ng/ml), diamide 0.5 mM or aminotriazole 5 mM. The method, boiled down: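 About 1.0×10^6 cells were exposed to cytokines with or without antioxidants for various periods, then lipids were extracted. Sphingomyelin was separated by HPTLC and quantified by densitometry. Ceramide was phosphorylated with DAG kinase and [γ-^32P]ATP, and ceramide 1-phosphate was resolved by TLC and quantified by autoradiography/densitometry, expressed as arbitrary absorbance units or percent change.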

“Also recorded” adds a separate entry of the source.

For `CC[C@H](C)C(=O)O[C@H]1C[C@@H](C)C=C2C=C[C@H](C)[C@H](CC[C@@H]3C[C@@H](O)CC(=O)O3)[C@H]21` [Lovastatin], in experiment [1], the IC50 (in general, the point on the concentration scale where inhibition reaches its midpoint) is 10 nM. Take `CC(=O)N[C@@H](CS)C(=O)O` [NAC, N-acetyl cysteine]: the “degradation of sphingomyelin to ceramide / ceramide production” value in experiment [2] was “potentially blocked the decrease in sphingomyelin as well as the increase in ceramide; also recorded: blocked diamide-mediated decrease in GSH level and induction of ceramide production; also recorded: blocked the ATZ-mediated increase in ceramide production”.
